Measured values: patent publication US6903108B2, “Fungicidal mixtures based on amide compounds and pyridine derivatives” (BASF Aktiengesellschaft, priority 1997, dated 2005)
“And” between values parts separate entries of the source, which are not always exact repeats. Equal entries are not always repeated.

Assays:
[1] = test system: Botrytis cinerea; assay: Activity against Botrytis cinerea on bell peppers, green fruit disks (Use Example 2); type: in vivo
[2] = test system: Botrytis cinerea; assay: Activity against Botrytis cinerea on bell pepper leaves (Use Example 1); conditions: in vivo

Compound	Efficacy in % of the untreated control ([1]; in vivo)	Efficacy in % of the untreated control [2]	also measured
O=C(Nc1ccccc1-c1ccc(F)cc1)c1cccnc1Cl [Compound I.1]	0%	–	–
O=C(Nc1ccccc1-c1ccc(Cl)cc1)c1cccnc1Cl [Compound I.2]	–	67% and 44%	–
N#Cc1c[nH]cc1-c1cccc2c1OC(F)(F)O2 [Compound IV, fludioxinil]	0%	–	–
CN(C)S(=O)(=O)N(SC(F)(Cl)Cl)c1ccccc1 [Compound IXa, dichlofluanid]	–	0%	–
O=C1c2ccccc2C(=O)N1SC(Cl)(Cl)Cl [Compound VII, folpet]	0%	0%	–
O=[N+]([O-])c1cc(C(F)(F)F)c(Cl)c([N+](=O)[O-])c1Nc1ncc(C(F)(F)F)cc1Cl [Compound VIII, fluazinam]	–	–	Efficacy in % of the untreated control ([1]; 16 ppm active ingredient in the spray liquor, green bell pepper fruit disks, 4 days at 18° C.): 0%; Efficacy in % of the untreated control ([1]; 31 ppm active ingredient in the spray liquor, green bell pepper fruit disks, 4 days at 18° C.): 0%
